Columns and labels:
[1] = test system: cervical cancer cells (SiHa); assay: MTT cytotoxicity assay, cervical cancer cells; assay type: cell-based; design: key: —: Not active; =PT: Activity equivalent to Paclitaxel; <PT: Activity less than Paclitaxel; details: 24 to 96 hours, potency over paclitaxel
Procedure: (§1) In vitro cytotoxic activity of novel paclitaxel derivatives was determined by performing the MTT cytotoxicity assay (Mosmann T., J Immunological Methods, 65:55; 1983). Briefly, the cultured tumor cells were separately seeded in a 96-well culture plate and co-incubated with paclitaxel or its derivatives dissolved in methanol, dimethyl formamide, dimethyl sulfoxide or isopropyl alcohol with relevant controls at 37° C. in a CO2 incubator. After 24 to 96 hours, the assay was terminated and percent cyotoxicities calculated.

[2] = test system: ovarian cancer cells (PA-1); assay: MTT cytotoxicity assay, ovarian cancer cells; assay type: cell-based; design: key: —: Not active; =PT: Activity equivalent to Paclitaxel; <PT: Activity less than Paclitaxel; details: PA-1 ovarian cancer cells, 24 to 96 hours, potency over paclitaxel
Procedure: as §1

[3] = test system: breast cancer cells (HBL100); assay: MTT cytotoxicity assay, breast cancer cells; assay type: cell-based; design: key: —: Not active; =PT: Activity equivalent to Paclitaxel; <PT: Activity less than Paclitaxel; details: 24 to 96 hours, potency over paclitaxel
Procedure: as §1

leukemia cells (MOLT-4) = assay: MTT cytotoxicity assay, leukemia cells; assay type: cell-based; design: key: —: Not active; =PT: Activity equivalent to Paclitaxel; <PT: Activity less than Paclitaxel; details: MOLT-4 leukemia cells, 24 to 96 hours, potency over paclitaxel
Procedure: as §1

lung cancer cells (L132) = assay: MTT cytotoxicity assay, lung cancer cells; assay type: cell-based; design: key: —: Not active; =PT: Activity equivalent to Paclitaxel; <PT: Activity less than Paclitaxel; details: 24 to 96 hours, potency over paclitaxel
Procedure: as §1

mice = details: cited from earlier work

| SMILES | Potency with respect to paclitaxel, SiHa [1] | Potency with respect to paclitaxel, PA-1 [2] | Potency with respect to paclitaxel, HBL100 [3] | Potency with respect to paclitaxel, MOLT-4 (leukemia cells (MOLT-4)) | Potency with respect to paclitaxel, L132 (lung cancer cells (L132)) | toxic dose (mice; administered in the Cremophor vehicle) [mg/kg] | Maximum Tolerated Dose (MTD) (mice; mice, ip administration) [mg/kg] |
| --- | --- | --- | --- | --- | --- | --- | --- |
| CC(=O)OC1C(=O)C2(C)C(O)CC3OCC3(OC(C)=O)C2C(OC(=O)c2ccccc2)C2(O)CC(OC(=O)C(OC(=O)CNC(=O)CNC(=O)OC(C)(C)C)C(NC(=O)c3ccccc3)c3ccccc3)C(C)=C1C2(C)C (stereo not drawn) [AV-4S] | — | 9.5 | 3.3 | 13.2 | 56.3 |  |  |
| CC(=O)OC1C(=O)C2(C)C(O)CC3OCC3(OC(C)=O)C2C(OC(=O)c2ccccc2)C2(O)CC(OC(=O)C(OC(=O)CC(C)(C)C(=O)O)C(NC(=O)c3ccccc3)c3ccccc3)C(C)=C1C2(C)C (stereo not drawn) [AV-82B] | >25.0 | — | >170 | — | — |  |  |
| CC(=O)OC1C(=O)C2(C)C(O)CC3OCC3(OC(C)=O)C2C(OC(=O)c2ccccc2)C2(O)CC(OC(=O)C(OC(=O)c3cccc(C(F)(F)F)c3)C(NC(=O)c3ccccc3)c3ccccc3)C(C)=C1C2(C)C (stereo not drawn) [AV-86B] | 2.5 | — | <PT | — |  |  |  |
| CC(=O)OC1C(=O)C2(C)C(O)CC3OCC3(OC(C)=O)C2C(OC(=O)c2ccccc2)C2(O)CC(OC(=O)C(OC(=O)c3ccc(F)cc3F)C(NC(=O)c3ccccc3)c3ccccc3)C(C)=C1C2(C)C (stereo not drawn) [AV-103S] | 1.4 | — |  | — | — |  |  |
| CC(=O)OC1C(=O)C2(C)C(O)CC3OCC3(OC(C)=O)C2C(OC(=O)c2ccccc2)C2(O)CC(OC(=O)C(OC(=O)c3cccc(F)c3F)C(NC(=O)c3ccccc3)c3ccccc3)C(C)=C1C2(C)C (stereo not drawn) [AV-105S] | 1.4 | — | 3.8 | — | — |  |  |
| CC(=O)OC1C(=O)C2(C)C(O)CC3OCC3(OC(C)=O)C2C(OC(=O)c2ccccc2)C2(O)CC(OC(=O)C(OC(=O)C(OC(C)=O)c3ccccc3)C(NC(=O)c3ccccc3)c3ccccc3)C(C)=C1C2(C)C (stereo not drawn) [AV-125S] | — | =PT | — | — | — |  |  |
| CC(=O)OC(C)C(=O)OC1CC2OCC2(OC(C)=O)C2C(OC(=O)c3ccccc3)C3(O)CC(OC(=O)C(OC(=O)OCC(Cl)(Cl)Cl)C(NC(=O)c4ccccc4)c4ccccc4)C(C)=C(C(OC(C)=O)C(=O)C12C)C3(C)C (stereo not drawn) [AV-126S] | — | =PT | — | — | — |  |  |
| CC(=O)CC(=O)OC(C(=O)OC1CC2(O)C(OC(=O)c3ccccc3)C3C4(OC(C)=O)COC4CC(O)C3(C)C(=O)C(OC(C)=O)C(=C1C)C2(C)C)C(NC(=O)c1ccccc1)c1ccccc1 (stereo not drawn) [AV-147A] | — | =PT | — | — | — |  |  |
| CC(=O)OC1C(=O)C2(C)C(O)CC3OCC3(OC(C)=O)C2C(OC(=O)c2ccccc2)C2(O)CC(OC(=O)C(OC(=O)CSc3ccccc3)C(NC(=O)c3ccccc3)c3ccccc3)C(C)=C1C2(C)C (stereo not drawn) [AV-150S] | — | =PT | — | — | — |  |  |
| CC(=O)O[C@H]1C(=O)[C@@]2(C)[C@H]([C@H](OC(=O)c3ccccc3)[C@]3(O)C[C@H](OC(=O)[C@H](O)[C@@H](NC(=O)c4ccccc4)c4ccccc4)C(C)=C1C3(C)C)[C@]1(OC(C)=O)CO[C@@H]1C[C@@H]2O [paclitaxel, Paclitaxel] |  |  |  |  |  | > 30 | 50 |

— patent US6395771B1, “Paclitaxel derivatives for the treatment of cancer” (Dabur Research Foundation, priority 2000, dated 2002)
